Values of other authors in patent US7682636B2 (Metaproteomics, LLC, priority 2001, dated 2010).

What was measured:
COX-2 over COX-1 = conditions: reported, background
[1] = test system: osteoarthritis of the knee in outpatients; conditions: 1500 mg glucosamine sulfate per day versus 1200 mg ibuprofen

CC(=O)Oc1ccccc1C(=O)O [aspirin]
COX-2 specificity (COX-2 over COX-1): 0.6

N[C@H]1C(O)O[C@H](CO)[C@@H](O)[C@@H]1O.O=S(=O)(O)O (stereo partly drawn) [glucosamine, glucosamine sulfate]
pain scores [1]: difference between the two groups turned significantly in favor of glucosamine by week eight

CC(C)Cc1ccc(C(C)C(=O)O)cc1 (stereo not drawn) [ibuprofen]
pain scores [1]: pain scores decreased faster during the first two weeks in the ibuprofen patients than in the glucosamine-treated patients
